Results as given in patent US11000033B2, “Ketone or oxime compound, and herbicide” (NISSAN CHEMICAL CORPORATION, priority 2014, dated 2021).

What was measured:
Type in all cases: in vivo
corn [1] = experiment: Test Example 5: effect on crop by foliage application, plastic box (symbol c); settings: 320 g/ha, 3 weeks after application
Method in brief: (§1)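 Diluvial soil, sterilized and boxed (21 × 13 × 7 cm), received spot-sown seed covered by about 1.5 cm soil; plants were then greenhouse-grown at 25–30° C.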

Setaria viridis [2] = experiment: Test Example 4: herbicidal effect by soil treatment (symbol G); settings: application herbicide amount 320 g/ha
Source text: (§2) Herbicidal Effect Test by Soil Treatment
(§3) Sterilized diluvial soil was placed in a plastic box having a length of 21 cm, a width of 13 cm, and a depth of 7 cm. Each of the seeds of Digitaria ciliaris, Setaria viridis, Echinochloa crus-galli var. crus-galli, Avena fatua, Alopecurus myosuroides, Lolium multiflorum Lam., Apera spica-venti, Abutilon theophrasti, Amaranthus retroflexus, Chenopodium album, Stellaria media, Galium spurium, Veronica persica, corn, soybean, rice, wheat, beet, and rapeseed was sowed in a spot-like manner and was covered with the soil of a thickness of about 1.5 cm. Subsequently, the emulsion agent of the compound present invention prepared in accordance with Formulation Example 2 was diluted with water so as to be a predetermined herbicide amount and the diluted emulsion agent was uniformly applied to the surface of the soil with a small-size spray. The plastic box was placed in a greenhouse of 25° C. to 30° C. to grow plant. 3 weeks later from the herbicide application, the effect to each plant was investigated in accordance with the criteria of Test Example 1.

Veronica persica [3] = experiment: Test Example 4: herbicidal effect by soil treatment (symbol R); settings: application herbicide amount 320 g/ha
Source text: as §2, §3

rice = experiment: Test Example 4: effect on crop by soil treatment (symbol b); settings: application herbicide amount 320 g/ha
Source text: as §2
(§4) Sterilized diluvial soil was placed in a plastic box having a length of 21 cm, a width of 13 cm, and a depth of 7 cm. Each of the seeds of Digitaria ciliaris, Setaria viridis, Echinochloa crus-galli var. crus-galli, Avena fatua, Alopecurus myosuroides, Lolium multiflorum Lam., Apera spica-venti, Abutilon theophrasti, Amaranthus retroflexus, Chenopodium album, Stellaria media, Galium spurium, Veronica persica, corn, soybean, rice, wheat, beet, and rapeseed was sowed in a spot-like manner and was covered with the soil of a thickness of about 1.5 cm. […] The plastic box was placed in a greenhouse of 25° C. to 30° C. to grow plant.

Alopecurus myosuroides [4] = experiment: Test Example 4: herbicidal effect by soil treatment (symbol J); settings: application herbicide amount 320 g/ha
Source text: as §2, §3

Amaranthus retroflexus [5] = experiment: Test Example 5: herbicidal effect by foliage application, plastic box (symbol N); settings: 320 g/ha, 3 weeks after application
Method in brief: (§5)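 Emulsion formulation, diluted with water to the intended rate, was applied uniformly to leaves by small sprayer. Recipients were 14-day greenhouse-grown seedlings (25° C. to 30° C.). Assessment followed at 3 weeks.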

[6] = system: Echinochloa crus-galli var. crus-galli; experiment: Test Example 4: herbicidal effect by soil treatment (symbol H); settings: application herbicide amount 320 g/ha
Source text: as §2, §3

Veronica persica [7] = experiment: Test Example 5: herbicidal effect by foliage application, plastic box (symbol R); settings: 320 g/ha, 3 weeks after application
Method in brief: as §5

rapeseed [8] = experiment: Test Example 4: effect on crop by soil treatment (symbol g); settings: application herbicide amount 320 g/ha
Source text: as §2, §4

Apera spica-venti [9] = experiment: Test Example 5: herbicidal effect by foliage application, plastic box (symbol L); settings: 320 g/ha, 3 weeks after application
Method in brief: as §5

Apera spica-venti [10] = experiment: Test Example 4: herbicidal effect by soil treatment (symbol L); settings: application herbicide amount 320 g/ha
Source text: as §2, §3

Digitaria ciliaris [11] = experiment: Test Example 4: herbicidal effect by soil treatment (symbol F); settings: application herbicide amount 320 g/ha
Source text: as §2, §3

[12] = system: Echinochloa crus-galli var. crus-galli; experiment: Test Example 5: herbicidal effect by foliage application, plastic box (symbol H); settings: 320 g/ha, 3 weeks after application
Method in brief: as §5

Amaranthus retroflexus [13] = experiment: Test Example 4: herbicidal effect by soil treatment (symbol N); settings: application herbicide amount 320 g/ha
Source text: as §2, §3

[14] = system: Echinochloa crus-galli var. crus-galli; experiment: Test Example 3: herbicidal effect by foliage application, Wagner pot (symbol H); settings: application herbicide amount 320 g/ha
Method in brief: (§6)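 Rating at 3 weeks post-spray, by defined criteria. Treatment: emulsion diluted with water to a predetermined amount, applied evenly to foliage of 14-day-old plants raised in alluvial soil flooded 0.1–0.5 cm deep at 25–30 °C, rice co-sown.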

beet [15] = experiment: Test Example 5: effect on crop by foliage application, plastic box (symbol f); settings: 320 g/ha, 3 weeks after application
Method in brief: as §1

soybean [16] = experiment: Test Example 5: effect on crop by foliage application, plastic box (symbol d); settings: 320 g/ha, 3 weeks after application
Method in brief: as §1

Lolium multiflorum Lam. [17] = experiment: Test Example 4: herbicidal effect by soil treatment (symbol K); settings: application herbicide amount 320 g/ha
Source text: as §2, §3

Stellaria media [18] = experiment: Test Example 5: herbicidal effect by foliage application, plastic box (symbol P); settings: 320 g/ha, 3 weeks after application
Method in brief: as §5

Setaria viridis [19] = experiment: Test Example 5: herbicidal effect by foliage application, plastic box (symbol G); settings: 320 g/ha, 3 weeks after application
Method in brief: as §5

Lolium multiflorum Lam. [20] = experiment: Test Example 5: herbicidal effect by foliage application, plastic box (symbol K); settings: 320 g/ha, 3 weeks after application
Method in brief: as §5

Abutilon theophrasti [21] = experiment: Test Example 4: herbicidal effect by soil treatment (symbol M); settings: application herbicide amount 320 g/ha
Source text: as §2, §3

rice plant = experiment: Test Example 5: effect on crop by foliage application, plastic box (symbol b); settings: 320 g/ha, 3 weeks after application
Method in brief: as §1

rapeseed [22] = experiment: Test Example 5: effect on crop by foliage application, plastic box (symbol g); settings: 320 g/ha, 3 weeks after application
Method in brief: as §1

wheat [23] = experiment: Test Example 4: effect on crop by soil treatment (symbol e); settings: application herbicide amount 320 g/ha
Source text: as §2, §4

Abutilon theophrasti [24] = experiment: Test Example 5: herbicidal effect by foliage application, plastic box (symbol M); settings: 320 g/ha, 3 weeks after application
Method in brief: as §5

Stellaria media [25] = experiment: Test Example 4: herbicidal effect by soil treatment (symbol P); settings: application herbicide amount 320 g/ha
Source text: as §2, §3

Avena fatua [26] = experiment: Test Example 5: herbicidal effect by foliage application, plastic box (symbol I); settings: 320 g/ha, 3 weeks after application
Method in brief: as §5

Leptochloa chinensis = experiment: Test Example 3: herbicidal effect by foliage application, Wagner pot (symbol D); settings: application herbicide amount 320 g/ha
Method in brief: as §6

Alopecurus myosuroides [27] = experiment: Test Example 5: herbicidal effect by foliage application, plastic box (symbol J); settings: 320 g/ha, 3 weeks after application
Method in brief: as §5

corn [28] = experiment: Test Example 4: effect on crop by soil treatment (symbol c); settings: application herbicide amount 320 g/ha
Source text: as §2, §4

Avena fatua [29] = experiment: Test Example 4: herbicidal effect by soil treatment (symbol I); settings: application herbicide amount 320 g/ha
Source text: as §2, §3

Cyperus difformis = experiment: Test Example 3: herbicidal effect by foliage application, Wagner pot (symbol E); settings: application herbicide amount 320 g/ha
Method in brief: as §6

soybean [30] = experiment: Test Example 4: effect on crop by soil treatment (symbol d); settings: application herbicide amount 320 g/ha
Source text: as §2, §4

wheat [31] = experiment: Test Example 5: effect on crop by foliage application, plastic box (symbol e); settings: 320 g/ha, 3 weeks after application
Method in brief: as §1

[32] = system: directly sowed rice plant; experiment: Test Example 3: effect on crop by foliage application, Wagner pot (symbol b); settings: application herbicide amount 320 g/ha
Method in brief: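 Steps: fill a 1/10000-are Wagner pot with alluvial soil; add water and mix to submerge at 0.1–0.5 cm depth; sow rice plus Echinochloa crus-galli var. crus-galli, Leptochloa chinensis and Cyperus difformis; grow in a 25–30 °C greenhouse.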

Galium spurium = experiment: Test Example 5: herbicidal effect by foliage application, plastic box (symbol Q); settings: 320 g/ha, 3 weeks after application
Method in brief: as §5

Digitaria ciliaris [33] = experiment: Test Example 5: herbicidal effect by foliage application, plastic box (symbol F); settings: 320 g/ha, 3 weeks after application
Method in brief: as §5

beet [34] = experiment: Test Example 4: effect on crop by soil treatment (symbol f); settings: application herbicide amount 320 g/ha
Source text: as §2, §4

CCOC(=O)C(C(=O)C1CCCC1)C1CC(O)=C(c2c(C)cc(C)cc2C)C1=O (stereo not drawn) [2-027]
c: corn, effect on crop grade (corn [1]): 1 (Herbicidal ratio of 5% or higher and lower than 20%)
G: Setaria viridis, herbicidal effect grade (Setaria viridis [2]): 5 (Herbicidal ratio of 90% or more (almost completely withered))
R: Veronica persica, herbicidal effect grade (Veronica persica [3]): 0 (Herbicidal ratio of 5% or lower (almost no effect))
b: directly sowed rice plant, effect on crop grade (rice): 4 (Herbicidal ratio of 70% or higher and lower than 90%)
J: Alopecurus myosuroides, herbicidal effect grade (Alopecurus myosuroides [4]): 1 (Herbicidal ratio of 5% or higher and lower than 20%)
N: Amaranthus retroflexus, herbicidal effect grade (Amaranthus retroflexus [5]): 0 (Herbicidal ratio of 5% or lower (almost no effect))
H: Echinochloa crus-galli var. crus-galli, herbicidal effect grade [6]: 3 (Herbicidal ratio of 40% or higher and lower than 70%)
R: Veronica persica, herbicidal effect grade (Veronica persica [7]): 0 (Herbicidal ratio of 5% or lower (almost no effect))
g: rapeseed, effect on crop grade (rapeseed [8]): 0 (Herbicidal ratio of 5% or lower (almost no effect))
L: Apera spica-venti, herbicidal effect grade (Apera spica-venti [9]): 0 (Herbicidal ratio of 5% or lower (almost no effect))
L: Apera spica-venti, herbicidal effect grade (Apera spica-venti [10]): 0 (Herbicidal ratio of 5% or lower (almost no effect))
F: Digitaria ciliaris, herbicidal effect grade (Digitaria ciliaris [11]): 3 (Herbicidal ratio of 40% or higher and lower than 70%)
H: Echinochloa crus-galli var. crus-galli, herbicidal effect grade [12]: 3 (Herbicidal ratio of 40% or higher and lower than 70%)
N: Amaranthus retroflexus, herbicidal effect grade (Amaranthus retroflexus [13]): 0 (Herbicidal ratio of 5% or lower (almost no effect))
herbicidal effect on H (Echinochloa crus-galli var. crus-galli), grade 0-5 [14]: 3 (Herbicidal ratio of 40% or higher and lower than 70%)
f: beet, effect on crop grade (beet [15]): 0 (Herbicidal ratio of 5% or lower (almost no effect))
d: soybean, effect on crop grade (soybean [16]): 0 (Herbicidal ratio of 5% or lower (almost no effect))
K: Lolium multiflorum Lam., herbicidal effect grade (Lolium multiflorum Lam. [17]): 2 (Herbicidal ratio of 20% or higher and lower than 40%)
P: Stellaria media, herbicidal effect grade (Stellaria media [18]): 0 (Herbicidal ratio of 5% or lower (almost no effect))
G: Setaria viridis, herbicidal effect grade (Setaria viridis [19]): 5 (Herbicidal ratio of 90% or more (almost completely withered))
K: Lolium multiflorum Lam., herbicidal effect grade (Lolium multiflorum Lam. [20]): 4 (Herbicidal ratio of 70% or higher and lower than 90%)
M: Abutilon theophrasti, herbicidal effect grade (Abutilon theophrasti [21]): 0 (Herbicidal ratio of 5% or lower (almost no effect))
b: directly sowed rice plant, effect on crop grade (rice plant): 4 (Herbicidal ratio of 70% or higher and lower than 90%)
g: rapeseed, effect on crop grade (rapeseed [22]): 1 (Herbicidal ratio of 5% or higher and lower than 20%)
e: wheat, effect on crop grade (wheat [23]): 0 (Herbicidal ratio of 5% or lower (almost no effect))
M: Abutilon theophrasti, herbicidal effect grade (Abutilon theophrasti [24]): 0 (Herbicidal ratio of 5% or lower (almost no effect))
P: Stellaria media, herbicidal effect grade (Stellaria media [25]): 0 (Herbicidal ratio of 5% or lower (almost no effect))
I: Avena fatua, herbicidal effect grade (Avena fatua [26]): 1 (Herbicidal ratio of 5% or higher and lower than 20%)
herbicidal effect on D (Leptochloa chinensis), grade 0-5 (Leptochloa chinensis): 0 (Herbicidal ratio of 5% or lower (almost no effect))
J: Alopecurus myosuroides, herbicidal effect grade (Alopecurus myosuroides [27]): 2 (Herbicidal ratio of 20% or higher and lower than 40%)
c: corn, effect on crop grade (corn [28]): 1 (Herbicidal ratio of 5% or higher and lower than 20%)
I: Avena fatua, herbicidal effect grade (Avena fatua [29]): 0 (Herbicidal ratio of 5% or lower (almost no effect))
herbicidal effect on E, grade 0-5 (Cyperus difformis): 0 (Herbicidal ratio of 5% or lower (almost no effect))
d: soybean, effect on crop grade (soybean [30]): 0 (Herbicidal ratio of 5% or lower (almost no effect))
e: wheat, effect on crop grade (wheat [31]): 0 (Herbicidal ratio of 5% or lower (almost no effect))
effect on crop b (directly sowed rice plant), grade 0-5 [32]: 5 (Herbicidal ratio of 90% or more (almost completely withered))
Q: Galium spurium, herbicidal effect grade (Galium spurium): 0 (Herbicidal ratio of 5% or lower (almost no effect))
F: Digitaria ciliaris, herbicidal effect grade (Digitaria ciliaris [33]): 0 (Herbicidal ratio of 5% or lower (almost no effect))
f: beet, effect on crop grade (beet [34]): 0 (Herbicidal ratio of 5% or lower (almost no effect))
